Measured values: US6255285A, “Phenethylamine derivatives” (Chugai Seiyaku Kabushiki Kaisha, priority 1997, dated 2001)
Square brackets hold non-standard residues; d marks the D form. Peptide text beside a SMILES is read from it. Tyr(3-tBu) = CC(C)(C)c1cc(C[CH](N)C(=O)O)ccc1O; Phg = N[CH](C(=O)O)c1ccccc1

Assays:
motilin receptor = biological target: T1, motilin receptor (Oryctolagus cuniculus, UniProt G1T803); assay: Motilin receptor binding test; settings: rabbit duodenum homogenate, 125I motilin 25 pM; concentration reducing specific binding by 50%
T1 construct: had the mucous membrane separated and homogenized in 50 mM Tris-HCl buffer to prepare a receptor sample; from tissue; host or cells: rabbit duodenum with the mucosa removed, homogenate
Method: Motilin Receptor Binding Test
A motilin receptor binding test was conducted in the following manner [Bormans et al., Regul. Peptides, 15, 143 (1986)]. The duodenum was extracted from a slaughtered rabbit, had the mucous membrane separated and homogenized in 50 mM Tris-HCl buffer to prepare a receptor sample. The sample was incubated together with ^125 I motilin 25 pM and thereafter the radioactivity bound to the receptor was measured. Specific binding was defined as the difference between the radioactivity in the case of adding 1% DMSO in place of the compounds of the examples and that in the case of adding a great excess amount of motilin (10^-7 M). The activity of each compound was expressed by IC50 (in nM), as the concentration sufficient to reduce the specific binding by 50%.

[1] = system: motilin-induced contraction of a specimen of longitudinal muscle in the duodenum extracted from a rabbit; assay: Contraction suppressing test: action on motilin-induced contraction of duodenum longitudinal muscle specimen; type: cell-based; settings: rabbit duodenum specimen in organ bath, Krebs solution 28° C.; effect on dose-dependent contraction by motilin
Method: Action on the Contraction of a Specimen of Longitudinal Muscle in the Duodenum Extracted from a Rabbit
The action on the motilin-induced contraction of a specimen of longitudinal muscle in the duodenum extracted from a rabbit was investigated by the following method. A duodenum specimen extracted from a slaughtered rabbit (3×10 mm) was suspended in an organ bath (10 ml) such that the longitudinal muscle would run vertically; the bath was filled with a Krebs solution kept at 28° C. A mixed gas (95% O2 and 5% CO2) was continuously bubbled into the Krebs solution and the contraction of the duodenum specimen was recorded isotonically (with a 1-g load) via an isotonic transducer (TD-111T of Nihon Koden, K.K.) The degree of contraction was expressed in relative values, with the contraction by acetylcholine at a dose of 10^-4 M being taken as 100%. The activity of each compound was calculated as pA2 value indicating its effect on the dose-dependent muscle contraction by the motilin put into the organ bath.

T1 sequence (G1T803 1-400): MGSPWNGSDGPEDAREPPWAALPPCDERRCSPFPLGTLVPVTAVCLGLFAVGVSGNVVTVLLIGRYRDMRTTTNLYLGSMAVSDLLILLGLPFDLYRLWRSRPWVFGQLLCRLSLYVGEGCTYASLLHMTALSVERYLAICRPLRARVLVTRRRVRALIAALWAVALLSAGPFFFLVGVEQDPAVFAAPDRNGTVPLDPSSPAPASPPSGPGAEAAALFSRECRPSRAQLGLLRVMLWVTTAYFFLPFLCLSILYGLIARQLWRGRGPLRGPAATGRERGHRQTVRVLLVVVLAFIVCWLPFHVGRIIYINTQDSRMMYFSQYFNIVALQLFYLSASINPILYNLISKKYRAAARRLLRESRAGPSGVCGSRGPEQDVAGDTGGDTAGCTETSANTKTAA

CC(C)(C)c1cc(CC(NC(=O)C(NC(=O)C(N)Cc2ccccc2)c2ccccc2)C(N)=O)ccc1O (stereo not drawn) [Example 5, Phe-Phg-Tyr(3-tBu)-NH2] (H-Phe-[Phg]-[Tyr(3-tBu)]-NH2; configuration not given here)
IC50 (motilin receptor): 12 nM
Contraction suppressing test, pA2 [1]: 7.81

CN(C(=O)C(N)Cc1ccccc1)C(C(=O)NC(Cc1ccc(O)c(C(C)(C)C)c1)C(N)=O)c1ccccc1 [Example 18B, Phe-N-Me-D-Phg-Tyr(3-tBu)-NH2]
IC50 (motilin receptor): 3.7 nM
Contraction suppressing test, pA2 [1]: 8.58

CC(Cc1ccc(O)c(C(C)(C)C)c1)NC(=O)C(C(C)C)N(C)C(=O)[C@@H](N)Cc1ccccc1 (some centres unmarked) [Example 118, N-[2-(3-tert-butyl-4-hydroxyphenyl)-1-methylethyl]-3-methyl-2-(N-methyl-N-phenylalanylamino)butanamide]
IC50 (motilin receptor): 1.9 nM
Contraction suppressing test, pA2 [1]: 8.43

CC(C)[C@@H](C(=O)N(C)[C@@H](Cc1ccc(O)c(C(C)(C)C)c1)C(N)=O)N(C)C(=O)[C@@H](N)Cc1ccccc1 [Example 119, Phe-N-Me-Val-N-Me-Tyr(3-tBu)-NH2] (HELM PEPTIDE1{F.[meV].[CN([C@@H](Cc1ccc(O)c(C(C)(C)C)c1)C(=O)[*:2])[*:1]].[am]}$$$$V2.0)
IC50 (motilin receptor): 4.3 nM
Contraction suppressing test, pA2 [1]: 8.59
